Where a name gives a salt, the structure may show the parent alone.
Cl.N[C@H](C(=O)N1CC(F)(F)C1)C1CCCCC1
melting point: 220 °C (dec.)

CCC(C)[C@H](N)C(=O)N1CC(F)(F)C1.Cl (some centres unmarked)
melting point: 195 °C (dec.)

CCC(C)[C@H](N)C(=O)N1CCC(F)(F)CC1.Cl (some centres unmarked)
melting point: 190 to 192 °C

C[C@H](N)C(=O)N1CC(F)(F)C(F)(F)C1.Cl
melting point: > 250 °C

CC[C@H](C)[C@H](N)C(=O)N1CC(F)C1 (as salt: hydrochloride) [Example 2, (2S,3S)-2-Amino-1-(3-fluoro-azetidin-1-yl)-3-methyl-pentan-1-one]
melting point: 208 to 210 °C

N[C@H](C(=O)N1CC(F)(F)C(F)(F)C1)C1CCCCC1 (as salt: hydrochloride) [Example 3, (S)-2-Amino-2-cyclohexyl-1-(3,3,4,4-tetrafluoro-pyrrolidin-1-yl)-ethanone]
melting point: 278 °C

CC[C@@H](C)[C@H](N)C(=O)N1CC(F)(F)C(F)(F)C1 (as salt: hydrochloride) [Example 4, (2S,3R)-2-Amino-3-methyl-1-(3,3,4,4-tetrafluoro-pyrrolidin-1-yl)-pentan-1-one]
melting point: > 250 °C

N[C@H](C(=O)N1CC(F)C1)C1CCCCC1 (as salt: hydrochloride) [Example 5, (S)-2-Amino-2-cyclohexyl-1-(3-fluoro-azetidin-1-yl)-ethanone]
melting point: 238 to 240 °C

CC(C)[C@H](N)C(=O)N1CC(F)(F)C(F)(F)C1 (as salt: hydrochloride) [Example 6, (S)-2-Amino-3-methyl-1-(3,3,4,4-tetrafluoro-pyrrolidin-1-yl)-butan-1-one]
melting point: 234 to 238 °C

CC[C@@H](C)[C@H](N)C(=O)N1CCC(F)(F)C1 [Example 7, (2S,3R)-2-Amino-1-(3,3-difluoro-pyrrolidin-1-yl)-3-methyl-pentan-1-one]
melting point: 196 to 198 °C

CC[C@H](C)[C@H](N)C(=O)N1CCC(F)(F)C1 [Example 8, (2S,3S)-2-Amino-1-(3,3-difluoro-pyrrolidin-1-yl)-3-methyl-pentan-1-one]
melting point: 195 to 198 °C

From patent US6710040B1, “Fluorinated cyclic amides as dipeptidyl peptidase IV inhibitors” (Pfizer Inc., priority 2002, dated 2004)
